From US9320274B2, “Synergistic weed control from applications of aminocyclopyrachlor and clopyralid” (Dow AgroSciences LLC, priority 2012, dated 2016)

How the values were obtained:
[1] = test system: calvary clover (Medicago arabica, MEDAB); assay: Field trial, post-emergence foliar application, weed control of calvary clover; type: in vivo; details: 27 days, applied alone
Text: The (a) aminocyclopyrachlor or an agriculturally acceptable salt or ester thereof is mixed with or applied in combination with (b) clopyralid or an agriculturally acceptable salt or ester thereof in an amount sufficient to induce a synergistic herbicidal effect. […] As described in the Herbicide Handbook of the Weed Science Society of America, Ninth Edition, 2007, p. 429, “'synergism' [is] an interaction of two or more factors such that the effect when combined is greater than the predicted effect based on the response to each factor applied separately.” Synergistic in the herbicide context can mean that the use of (a) and (b) as defined above results in an increased weed control effect compared to the weed control effects that are possible with the use of (a) or (b) alone. In some embodiments, the damage or injury to the undesired vegetation caused by the compositions and methods disclosed herein is evaluated using a scale from 0% to 100%, when compared with the untreated control vegetation, wherein 0% indicates no damage to the undesired vegetation and 100% indicates complete destruction of the undesired vegetation. […] 22 (1967) Field trials were conducted with applications made to established grassland with naturally occurring weed populations. The target plants were treated with postemergence foliar applications when they reached three to five inches tall. All treatments were applied using a randomized complete block trial design, with 4 replications per treatment. Treatments consisted of aminocyclopyrachlor in acid form and clopyralid-olamine, each in water and applied alone or in combination. Spray solutions were prepared using an appropriate amount of dilution to form a 2 L aqueous spray solution with active ingredients in single and two way combinations. Formulated compounds were applied to the plant material with a backpack sprayer equipped with 8003 nozzles calibrated to deliver 187 L/ha at a spray height of 18 inches (43 centimeters (cm)) above average plant canopy. […] The results were measured at 7 days and 27 days after the first application of the compositions. […]

[2] = test system: buckhorn plantain (Plantago lanceolata, PLALA); assay: Field trial, post-emergence foliar application, weed control of buckhorn plantain; type: in vivo; details: applied alone
Text: The (a) aminocyclopyrachlor or an agriculturally acceptable salt or ester thereof is mixed with or applied in combination with (b) clopyralid or an agriculturally acceptable salt or ester thereof in an amount sufficient to induce a synergistic herbicidal effect. […] As described in the Herbicide Handbook of the Weed Science Society of America, Ninth Edition, 2007, p. 429, “'synergism' [is] an interaction of two or more factors such that the effect when combined is greater than the predicted effect based on the response to each factor applied separately.” Synergistic in the herbicide context can mean that the use of (a) and (b) as defined above results in an increased weed control effect compared to the weed control effects that are possible with the use of (a) or (b) alone. In some embodiments, the damage or injury to the undesired vegetation caused by the compositions and methods disclosed herein is evaluated using a scale from 0% to 100%, when compared with the untreated control vegetation, wherein 0% indicates no damage to the undesired vegetation and 100% indicates complete destruction of the undesired vegetation. […] 22 (1967) Field trials were conducted with applications made to established grassland with naturally occurring weed populations. The target plants were treated with postemergence foliar applications when they reached three to five inches tall. All treatments were applied using a randomized complete block trial design, with 4 replications per treatment. Treatments consisted of aminocyclopyrachlor in acid form and clopyralid-olamine, each in water and applied alone or in combination. Spray solutions were prepared using an appropriate amount of dilution to form a 2 L aqueous spray solution with active ingredients in single and two way combinations. Formulated compounds were applied to the plant material with a backpack sprayer equipped with 8003 nozzles calibrated to deliver 187 L/ha at a spray height of 18 inches (43 centimeters (cm)) above average plant canopy. The treated plants were buckhorn plantain (Plantago lanceolata, PLALA) and […] clover (Medicago arabica, MEDAB). The treated plots and control plots were rated blind at various intervals after application. Ratings were based on a scale of 0-100%, as discussed above, wherein 0% indicates no damage to the undesired vegetation and 100% indicates complete destruction of the undesired vegetation Colby's equation was used to determine the herbicidal effects expected from the mixtures, as described above. The results were measured at 7 days and 27 days after the first application of the compositions. […] The herbicide tank mix combinations tested, application rates and ratios employed, plant species tested, and results are given below.

Compound | Mean % weed control ([1]; 35 g ae/ha) | Mean % weed control ([1]; 70 g ae/ha) | Mean % weed control ([2]; 7 days, 35 g ae/ha) | Mean % weed control ([2]; 27 days, 70 g ae/ha) | Mean % weed control ([1]; 18 g ae/ha) | Mean % weed control ([2]; 7 days, 18 g ae/ha) | Mean % weed control ([2]; 27 days, 18 g ae/ha) | Mean % weed control ([2]; 27 days, 35 g ae/ha)
O=C(O)c1nc(Cl)ccc1Cl [Clopyralid-olamine, clopyralid-olamine] | 13% | 30% | 18% | 28% |  |  |  | 
Nc1nc(C2CC2)nc(C(=O)O)c1Cl [Aminocyclopyrachlor, 6-amino-5-chloro-2-cyclopropylpyrimidine-4-carboxylic acid] |  |  |  |  | 27.5% | 18.75% | 22.5% | 35%
